# Laboratory results: PubChem BioAssay (NCI)
#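 In this assay, cells in 96-well plates receive the compound at five concentrations for 48 hours. Endpoints are linearly interpolated between the surrounding concentrations. Here, GI50 denotes the concentration required for 50% inhibition of growth. Definition used: TGI = concentration required for complete inhibition of growth.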
# Experiments:
# Assay in all cases: NCI-60 cell line screen, 48 h
# [1] = tested on: CCRF-CEM leukemia
# [2] = tested on: MOLT-4 leukemia
# [3] = tested on: LOX IMVI melanoma
# [4] = tested on: A549 NSCLC
# [5] = tested on: HCT-15 colon
# [6] = tested on: OVCAR-3 ovarian
# [7] = tested on: SF-268 CNS
# [8] = tested on: RXF 393 renal
# [9] = tested on: ACHN renal
# [10] = tested on: NCI-H460 lung
# [11] = tested on: NCI-H226 lung
# [12] = tested on: EKVX NSCLC
# [13] = tested on: M14 melanoma
# [14] = tested on: OVCAR-8 ovarian
# [15] = tested on: SNB-19 CNS
# [16] = tested on: BT-549 breast
# [17] = tested on: SW-620 colon
# [18] = tested on: NCI-H23 lung
# [19] = tested on: UACC-62 melanoma
# [20] = tested on: SK-MEL-2 melanoma
# [21] = tested on: HCC-2998 colon
# [22] = tested on: CAKI-1 renal
# [23] = tested on: MDA-MB-231 breast
# [24] = tested on: SF-295 CNS
# [25] = tested on: MCF7 breast
# [26] = tested on: NCI-H522 lung
# [27] = tested on: HS 578T breast
# [28] = tested on: SK-MEL-5 melanoma
# [29] = tested on: SK-OV-3 ovarian
# [30] = tested on: K-562 leukemia
# [31] = tested on: NCI/ADR-RES ovarian
# [32] = tested on: TK-10 renal
# [33] = tested on: RPMI-8226 leukemia
# [34] = tested on: U251 CNS
# [35] = tested on: HCT-116 colon
# [36] = tested on: IGROV1 ovarian
# [37] = tested on: 786-0 renal
# [38] = tested on: UACC-257 melanoma
# [39] = tested on: OVCAR-5 ovarian
# [40] = tested on: COLO 205 colon
# [41] = tested on: MDA-MB-435
# [42] = tested on: A498 renal
# [43] = tested on: KM12 colon
# [44] = tested on: PC-3 prostate
# [45] = tested on: SR leukemia
# [46] = tested on: SN12C renal
# [47] = tested on: T-47D breast
# [48] = tested on: UO-31 renal
# [49] = tested on: HL-60(TB) leukemia
# [50] = tested on: SK-MEL-28 melanoma
# [51] = tested on: SF-539 CNS
# [52] = tested on: HOP-92 NSCLC
# [53] = tested on: SNB-75 CNS
# [54] = tested on: DU-145 prostate
# [55] = tested on: OVCAR-4 ovarian
# [56] = tested on: HOP-62 NSCLC
structure (smiles),measurement,setting,value
Oc1ccc(O)c(-c2cn3c(n2)SCC3)c1,GI50,[1],5.18 µM
same,TGI,[1],> 100 µM
same,GI50,[2],4.37 µM
same,TGI,[2],9.55 µM
same,GI50,[3],17.5 µM
same,TGI,[3],31.5 µM
same,GI50,[4],47.5 µM
same,TGI,[4],> 100 µM
same,GI50,[5],19.1 µM
same,TGI,[5],36.9 µM
same,GI50,[6],9.36 µM
same,TGI,[6],28.1 µM
same,GI50,[7],28.7 µM
same,TGI,[7],> 100 µM
same,GI50,[8],18.4 µM
same,TGI,[8],36.2 µM
same,GI50,[9],20.4 µM
same,TGI,[9],34.7 µM
same,GI50,[10],60.9 µM
same,TGI,[10],> 100 µM
same,GI50,[11],6.85 µM
same,TGI,[11],28.6 µM
same,GI50,[12],19.5 µM
same,TGI,[12],37.3 µM
same,GI50,[13],15.5 µM
same,TGI,[13],31.3 µM
same,GI50,[14],19.7 µM
same,TGI,[14],52.1 µM
same,GI50,[15],21.3 µM
same,TGI,[15],45.4 µM
same,GI50,[16],11.8 µM
same,TGI,[16],25.7 µM
same,GI50,[17],3.19 µM
same,TGI,[17],8.17 µM
same,GI50,[18],24.4 µM
same,TGI,[18],73.4 µM
same,GI50,[19],11.2 µM
same,TGI,[19],24.7 µM
same,GI50,[20],78.8 µM
same,TGI,[20],> 100 µM
same,GI50,[21],19.6 µM
same,TGI,[21],36.2 µM
same,GI50,[22],2.47 µM
same,TGI,[22],5.57 µM
same,GI50,[23],11.7 µM
same,TGI,[23],26.5 µM
same,GI50,[24],14.8 µM
same,TGI,[24],38.7 µM
same,GI50,[25],26.8 µM
same,TGI,[25],> 100 µM
same,GI50,[26],4.93 µM
same,TGI,[26],> 100 µM
same,GI50,[27],18.6 µM
same,TGI,[27],90.7 µM
same,GI50,[28],16.9 µM
same,TGI,[28],33 µM
same,GI50,[29],12.5 µM
same,TGI,[29],40.6 µM
same,GI50,[30],7.24 µM
same,TGI,[30],> 100 µM
same,GI50,[31],17.2 µM
same,TGI,[31],39.1 µM
same,GI50,[32],21.3 µM
same,TGI,[32],37.3 µM
same,GI50,[33],4.08 µM
same,TGI,[33],> 100 µM
same,GI50,[34],18.3 µM
same,TGI,[34],33.6 µM
same,GI50,[35],3.07 µM
same,TGI,[35],7.81 µM
same,GI50,[36],39.9 µM
same,TGI,[36],> 100 µM
same,GI50,[37],2.32 µM
same,TGI,[37],6.59 µM
same,GI50,[38],25.5 µM
same,TGI,[38],55.8 µM
same,GI50,[39],17.5 µM
same,TGI,[39],33.3 µM
same,GI50,[40],17 µM
same,TGI,[40],37.8 µM
same,GI50,[41],15.8 µM
same,TGI,[41],35.2 µM
same,GI50,[42],20.9 µM
same,TGI,[42],75.7 µM
same,GI50,[43],16.9 µM
same,TGI,[43],38.2 µM
same,GI50,[44],19.1 µM
same,TGI,[44],38 µM
same,GI50,[45],4.03 µM
same,TGI,[45],10.4 µM
same,GI50,[46],13.9 µM
same,TGI,[46],29.2 µM
same,GI50,[47],17.5 µM
same,TGI,[47],42.2 µM
same,GI50,[48],20.7 µM
same,TGI,[48],> 100 µM
COC(=O)C1=C(O)[C@H](C(=O)OC)C2(O)C(C(=O)OC)[C@H](c3ccc(OC(=O)C(C)c4ccccc4)cc3)C[C@@H]1[C@@H]2C(=O)OC (stereo not given in full),GI50,[3],6.85 µM
same,TGI,[3],16.2 µM
same,GI50,[4],19.4 µM
same,TGI,[4],> 50 µM
same,GI50,[5],18.4 µM
same,TGI,[5],> 50 µM
same,GI50,[6],9.69 µM
same,TGI,[6],21.4 µM
same,GI50,[49],43.3 µM
same,TGI,[49],> 50 µM
same,GI50,[7],17.2 µM
same,TGI,[7],> 50 µM
same,GI50,[8],13.7 µM
same,TGI,[8],> 50 µM
same,GI50,[9],19.2 µM
same,TGI,[9],> 50 µM
same,GI50,[10],19.4 µM
same,TGI,[10],> 50 µM
same,GI50,[12],32.5 µM
same,TGI,[12],> 50 µM
same,GI50,[13],34.9 µM
same,TGI,[13],> 50 µM
same,GI50,[14],15 µM
same,TGI,[14],> 50 µM
same,GI50,[15],23.7 µM
same,TGI,[15],> 50 µM
same,GI50,[50],26.7 µM
same,TGI,[50],> 50 µM
same,GI50,[16],19.3 µM
same,TGI,[16],> 50 µM
same,GI50,[17],21 µM
same,TGI,[17],> 50 µM
same,GI50,[18],12.5 µM
same,TGI,[18],29.2 µM
same,GI50,[19],16.9 µM
same,TGI,[19],> 50 µM
same,GI50,[20],31 µM
same,TGI,[20],> 50 µM
same,GI50,[21],10.7 µM
same,TGI,[21],20.6 µM
same,GI50,[22],15.2 µM
same,TGI,[22],> 50 µM
same,GI50,[23],19.5 µM
same,TGI,[23],> 50 µM
same,GI50,[24],16.1 µM
same,TGI,[24],> 50 µM
same,GI50,[51],11.8 µM
same,TGI,[51],34.1 µM
same,GI50,[25],33.7 µM
same,TGI,[25],> 50 µM
same,GI50,[52],> 50 µM
same,TGI,[52],> 50 µM
same,GI50,[26],15.9 µM
same,TGI,[26],45.1 µM
same,GI50,[27],10.3 µM
same,TGI,[27],34.1 µM
same,GI50,[28],8.53 µM
same,TGI,[28],23 µM
same,GI50,[29],33.3 µM
same,TGI,[29],> 50 µM
same,GI50,[30],19.4 µM
same,TGI,[30],> 50 µM
same,GI50,[31],> 50 µM
same,TGI,[31],> 50 µM
same,GI50,[32],48.6 µM
same,TGI,[32],> 50 µM
same,GI50,[53],16.6 µM
same,TGI,[53],> 50 µM
same,GI50,[33],18.8 µM
same,TGI,[33],> 50 µM
same,GI50,[34],27.4 µM
same,TGI,[34],> 50 µM
same,GI50,[35],17.3 µM
same,TGI,[35],> 50 µM
same,GI50,[36],26.7 µM
same,TGI,[36],> 50 µM
same,GI50,[37],38.9 µM
same,TGI,[37],> 50 µM
same,GI50,[38],41.1 µM
same,TGI,[38],> 50 µM
same,GI50,[39],> 50 µM
same,TGI,[39],> 50 µM
same,GI50,[40],13.7 µM
same,TGI,[40],36.3 µM
same,GI50,[41],10.4 µM
same,TGI,[41],25.1 µM
same,GI50,[43],10.6 µM
same,TGI,[43],31.4 µM
same,GI50,[44],36.2 µM
same,TGI,[44],> 50 µM
same,GI50,[54],20.6 µM
same,TGI,[54],> 50 µM
same,GI50,[45],29.9 µM
same,TGI,[45],> 50 µM
same,GI50,[46],23.7 µM
same,TGI,[46],> 50 µM
same,GI50,[55],21.5 µM
same,TGI,[55],> 50 µM
same,GI50,[47],12.3 µM
same,TGI,[47],> 50 µM
same,GI50,[56],23.8 µM
same,TGI,[56],> 50 µM
same,GI50,[48],29.5 µM
same,TGI,[48],> 50 µM
